Data taken from US20170015640A1, “USE OF ARYLALKANOLAMINES AS SIGMA-1 RECEPTOR ANTAGONISTS” (Università degli studi di Pavia, priority 2014, published 2017).

What was measured:
σ-1 receptors = target: T1, σ-1 receptors (Rattus norvegicus, UniProt Q9R0C9); experiment: Growth of NGF-induced neurite outgrowths in PC12 cells (agonist/antagonist profile); format: cell-based; details: FIG. 6
T1 construct: performed on rat pheochromocytoma cells (PC12 cells); endogenous in cells; host or cells: PC12 rat pheochromocytoma cells
T1 sequence (Q9R0C9 whole entry): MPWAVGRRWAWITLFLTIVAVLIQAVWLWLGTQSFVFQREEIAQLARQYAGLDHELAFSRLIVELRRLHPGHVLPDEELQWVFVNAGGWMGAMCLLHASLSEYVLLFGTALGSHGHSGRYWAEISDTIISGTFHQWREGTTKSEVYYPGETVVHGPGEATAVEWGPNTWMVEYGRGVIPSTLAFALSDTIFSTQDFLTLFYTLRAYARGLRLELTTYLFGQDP
Method: Evaluation of the growth of neurite outgrowths induced by neuronal growth factor (NGF).
Evaluation of the growth of NGF-induced neurite outgrowths was performed on rat pheochromocytoma cells (PC12 cells), conventionally used as a model of neuronal study.
This method constitutes a reliable model for evaluating the agonist/antagonist profile of low molecular weight compounds on the o receptors. In particular, it has been reported that σ-1 agonists potentiate the growth of NGF-induced neurite outgrowths in PC12 cells. In contrast, σ-1 antagonists oppose the action of the agonists, leading to a reduction in NGF-induced growth (Rossi D. et al., “identification of a potent and selective σ1 receptor agonist potentiating NGF-induced neurite outgrowth in PC12 cells”, Bioorg. Med. Chem. 2011, 19, 6210-6224).
The cell culturing PC12 cells, the method for quantifying the growth of neurite outgrowths and the cytotoxicity test were performed as described by Rossi D. et al. in Bioorg. Med. Chem. 2011 cited above.
Statistical analysis of the data obtained was performed using the two-way analysis of variants (ANOVA) method and the Tukey post-hoc test. Values of p<0.05 were considered as being statistically significant.
The results, expressed as the mean value ±standard error of mean (SEM), represent the percentage of cells showing neurite growth. […]

[1] = In vitro metabolic stability in rat plasma; format: in vitro ADME; details: 37° C., FIG. 7(A)
Method: (§1) The metabolic stability studies were performed using biological matrices (plasma, blood and S9 fraction of liver) obtained from various animal species.
(§2) The biological matrices and the analysis method were arranged according to the process described by Rossi D. et al. in “Identification of RC-33 as a potent and selective al receptor agonist potentiating NGF-induced neurite outgrowth in PC12 cells. Part 2: g -scale synthesis, physicochemical characterization and in vitro metabolic stability” (Bioorg. Med. Chem. 2013, 21, 2577-2586).
(§3) For each biological matrix, suitable solutions were prepared to perform the test, as described below.
(§4) 10 μL of a stock solution of compound 1 in dimethyl sulfoxide (DMSO) were incubated with each matrix (total reaction volume 1 mL) in a mixer thermostatically maintained at 37° C. for […]. 50 μL aliquots were taken from each reaction mixture and sampled in duplicate at 5, 10, 15, 30, 60, 120 and 240 minutes to determine the reaction kinetics. […] The supernatant was analysed by means of an Acquity Waters ultra-fast liquid chromatography system, interfaced with a photodiode array detector (UPLC/UV/PAD) to obtain the concentration of the test compound at each of the said times. […]
(§5) The results, obtained from three independent experiments and expressed as the mean value ±standard deviation (SD), are given in FIGS. 8 and 9.

[2] = In vitro metabolic stability in dog plasma; format: in vitro ADME; details: 37° C., FIG. 7(A)
Method: as §1, §2, §3, §4, §5

[3] = In vitro metabolic stability in human plasma; format: in vitro ADME; details: 37° C., FIG. 7(A)
Method: as §1, §2, §3, §4, §5

[4] = In vitro metabolic stability in mouse blood; format: in vitro ADME; details: 37° C., FIG. 7(B)
Method: as §1, §2, §3, §4, §5

[5] = In vitro metabolic stability in rat blood; format: in vitro ADME; details: 37° C., FIG. 7(B)
Method: as §1, §2, §3, §4, §5

[6] = In vitro metabolic stability in S9 fraction of rat liver; format: in vitro ADME
Method: as §1, §2, §3, §4, §5

[7] = In vitro metabolic stability in S9 fraction of human liver; format: in vitro ADME
Method: as §1, §2, §3, §4, §5

[8] = In vitro metabolic stability, overall conclusion over biological matrices; format: in vitro ADME, various animal species
Method: as §1, §2, §3, §4, §5

male ICR mice = experiment: Formalin test (animal model of inflammatory pain); format: in vivo, mouse; details: intraperitoneal, even at a dose of 1 mg/kg, 30 min before 2% formalin, FIG. 9
Method: The formalin test is an animal model of inflammatory pain widely used and known in the literature.
32 male ICR mice weighing 25 grams were divided into 4 groups of 8 mice each.
The vehicle alone, which consisted of a mixture of dimethyl sulfoxide (DMSO), castor oil Cremophor® EL (BASF) and distilled water, in a 10/10/80 ratio, was administered to the control group (CTR).
Compound 1 was dissolved in the same vehicle and administered at the following doses: • group 1, 1 mg/kg; • group 2, 10 mg/kg; and • group 3, 20 mg/kg.
All the administrations took place by intraperitoneal injection. Thirty minutes after the administration, all the mice were subjected to an injection with 20 uL of a 2% formalin solution subcutaneously, into a paw.
The injection of formalin induces a two-phase nociceptive response, in other words, within the first 5-10 minutes of the administration of formalin, the first nociceptive phase is manifested, followed by a phase of quiescence and by the second nociceptive phase which is manifested 20-30 minutes after the administration of formalin.
The nociceptive response was recorded by evaluating the time that each mouse spent licking or biting its paw which received the injection. […]

σ-1 receptor = σ-1 receptor (Cavia porcellus, UniProt Q60492); experiment: biochemical
σ-1 receptor, sequence (Q60492 whole entry): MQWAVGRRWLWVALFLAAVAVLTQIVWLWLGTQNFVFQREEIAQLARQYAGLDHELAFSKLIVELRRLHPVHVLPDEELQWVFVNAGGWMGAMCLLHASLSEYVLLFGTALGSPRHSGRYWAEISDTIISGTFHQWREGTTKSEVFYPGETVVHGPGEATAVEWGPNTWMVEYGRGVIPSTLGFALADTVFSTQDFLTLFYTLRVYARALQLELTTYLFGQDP
Text: The IC50 values obtained from three independent experiments were transformed into the respective affinity constants (Ki), using the Cheng-Prusoff equation.

SMILES | effect on agonist-potentiated growth of NGF-induced neurite outgrowths (σ-1 receptors; σ-1 agonist plus 2.5 μM of compound (group A)) | metabolization in rat plasma [1] | metabolization in dog plasma [2] | metabolization in human plasma [3] | metabolization in mouse blood [4] | metabolization in rat blood [5] | metabolization in S9 fraction of rat liver ([6]; absence of NADPH, FIG. 8(A)) | metabolization in S9 fraction of rat liver ([6]; presence of NADPH, FIG. 8(B)) | metabolization in S9 fraction of human liver ([7]; absence of NADPH, FIG. 8(A)) | metabolization in S9 fraction of human liver ([7]; presence of NADPH, FIG. 8(B)) | in vitro metabolic stability [8] | reduction of inflammatory pain (time spent licking or biting the paw) (male ICR mice) | Ki (σ-1 receptor) [nM] | percentage of cells with growth of neurite outgrowths (σ-1 receptors; reference group (PRE) relative to control group (NGF))
OCC(CCN1CCCCC1)c1ccc(-c2ccccc2)cc1 (centres unmarked) [Compound 1, 4-(N-piperidinyl)-2-(4-diphenyl)butanol] | appreciably opposed the effect of the agonist compound | insignificant | insignificant | insignificant | insignificant | insignificant | insignificant | substantial metabolization | insignificant | substantial metabolization | high | effective in reducing inflammatory pain | 6.2 | 
Cl.O=C(OCCN1CCOCC1)C1(c2ccccc2)CCCCC1 [PRE, 2-(4-morpholinoethyl)-1-phenylcyclohexanecarboxylate hydrochloride, reference compound] |  |  |  |  |  |  |  |  |  |  |  |  |  | increased significantly
